Results from publication PMC11898605, “Selective Azapeptide CD36 Ligand MPE-298 Regulates oxLDL-LOX-1-Mediated Inflammation and Mitochondrial Oxidative Stress in Macrophages” (Cells, 2025).

Legend:
CD36 = target: T1, CD36 (Mus musculus, UniProt Q08857); test: BRET-based CD36 internalization assay; type: cell-based; settings: 30 min pretreatment: PP1 3 μg/mL, cytochalasin D 2 μg/mL, piceatannol 40 μM, 2-bromopalmitate 100 μM, SSO 100 μM, BI-0115 5 μM; then ligand 15 min
T1 construct: CD36 ORF was amplified from pCMV3-mCD36-GFPSpark; expressed in transfected cells; host or cells: J774A.1 murine macrophages, transiently co-transfected with mCD36-RlucII and rGFP-CAAX
Source text: For the construction of mouse CD36-RlucII, CD36 ORF was amplified from pCMV3-mCD36-GFPSpark using the 5′-primer NheI-CD36-Forward: […] and 3′-primer HindIII-CD36-Reverse: […] primers to introduce NheI and HindIII digestion sites sequences. The final product was subcloned in-frame into NheI/HindIII of pcDNA3.1/hygromycin (+) plasmid containing the RlucII [19]. The rGFP-CAAX plasmid, constructed as previously described, was kindly provided by Dr. Stephane Laporte.
For the BRET assay, J774A.1 cells were seeded in a 96-well plate (white, flat bottom) at a density of 35,000 cells/well in DMEM supplemented with 10% FBS and 1% penicillin/streptomycin. Cells were grown at 37 °C in 5% CO2 and 90% humidity. The next day, the culture medium was changed to DMEM 10% FBS and 0.2% penicillin/streptomycin, supplemented with 5-azacytidine (1 μM) for 2 h. Cells were transiently transfected using a mixed solution containing mCD36-RlucII plasmid (25.6 ng), rGFP-CAAX plasmid (31.7 ng), and pcDNA3.1(+) for a total of 80 ng cDNA/well. TransIT-X2® reagent was used at a cDNA-to-reagent ratio of 1 μg to 4 μL. Twenty-four hours later, cells were starved for 2 h in Tyrode’s buffer (140 mM NaCl, 2.7 mM KCl, 1 mM CaCl2, 12 mM NaHCO3, 5.6 mM D-glucose, 0.5 mM MgCl2, 0.37 mM NaH2PO4, and 25 mM HEPES, pH 7.4) supplemented with 0.01% BSA. Luminescence was induced with Prolume Purple (1.5 μM final) for 2 min in Tyrode’s buffer. Luminescence signal was measured using a Tecan Spark Multimode microplate reader (Tecan Trading AG, Männedorf, Switzerlnd) in the BRET2 mode with filter sets of 420/70 nm and 515/30 nm for detecting RlucII and rGFP signals, respectively. The BRET ratio was determined as follows: [(intensity emitted by the rGFP/intensity emitted by the Rluc2) − (intensity emitted by the rGFP/intensity emitted by the Rluc2 for the CD36-RLuc2 control cells)].
For kinetic study, transiently co-transfected J774A.1 cells were incubated at different times with MPE-298 (100 nM) or oxLDL (25 μg/mL). In experimental protocols involving pharmacological inhibitors, cells transiently co-transfected were pretreated with PP1 (3 μg/mL), cytochalasin D (2 μg/mL), piceatannol (40 μM), 2-bromopalmitate (100 μM), SSO (100 μM), and BI-0115 (5 μM) for 30 min. CD36 internalization was then induced with MPE-298 and oxLDL for 15 min. For the BRET saturation studies, the cells were transiently transfected with a fixed concentration of mCD36-RlucII plasmid (25.6 ng) and increasing concentrations of rGFP-CAAX plasmid ranging from 0 to 77 ng for 24 h.

RAW264.7 cells [1] = test: mtROS production (MitoSOX Red) in RAW264.7 cells; type: cell-based, murine; settings: for effect of inhibitor on MPE-298's inhibition of oxLDL-elicited mtROS production: SSO 100 μM, PP1 3 μg/mL, cytochalasin D 2 μg/mL, 2-BP 100 μM, BI-0115 5 μM, Figure 5A,B,F; for effect of inhibitor on oxLDL-elicited mtROS production: 30 min pre-exposure, oxLDL 25 μg/mL 4 h, Figures S4C, 5F
Protocol: RAW264.7 cells (17,000 cells/well) or M1 BMDM (60,000 cells/well) in complete medium (RPMI 1640 supplemented with 10% FBS and 1% penicillin/streptomycin), were seeded in 96-well tissue culture plates and incubated overnight at 37 °C in 5% CO2. On the day of experimentation, cells were starved in RPMI medium supplemented with 1% penicillin/streptomycin and 0.2% BSA for 1 h. Cells were first pretreated with MPE-298 for 1 h and stimulated or not with oxLDL for 4 h. In other experiments, cells were preincubated with inhibitors as indicated in the figure legends prior to MPE-298 incubation and oxLDL stimulation. After the stimulation period, cells were washed with Hanks’ balanced salt solution (HBSS, Wisent Inc.) and incubated with a mixture of MitoSOX Red (5 μM), a mitochondrial superoxide indicator, and Hoechst-33342 (4 μM), a nuclear staining dye, for 20 min at 37 °C. The fluorescence intensities were analyzed using a Synergy2 (BioTek) microplate reader with the following filter sets: excitation/emission at 510/580 nm for MitoSox and 350/461 nm for Hoechst-33342. Fluorescence intensity of MitoSox was normalized by fluorescence intensity of Hoescht-33342.

RAW264.7 cells [2] = test: Mitochondrial membrane potential (JC-1) in RAW264.7 cells; type: cell-based, murine; settings: for effect of inhibitor on oxLDL-elicited mitochondrial membrane depolarization: Figures S4D, 5G; for effect of inhibitor on MPE-298's reversal of oxLDL-elicited mitochondrial membrane depolarization: SSO 100 μM, PP1 3 μg/mL, 2-BP 100 μM, BI-0115 5 μM, Figure 5D,G
Protocol: For the measurement of the mitochondrial membrane potential (ΔΨM), treated cells were incubated in HBSS with 5,5′,6,6′-tetrachloro-1,1′,3,3′-tetraethylbenzimidazolylcarbocyanine iodide (JC-1, 5 μM), a membrane-permeable cationic dye (Invitrogen-Life Technologies, Carlsbad, CA, USA). After 20 min, cells were extensively washed with HBSS. Fluorescence from aggregated JC-1 was measured with an excitation wavelength of 550 nm and emission wavelength of 600 nm, and fluorescence from JC-1 monomer was detected with an excitation wavelength of 485 nm and emission wavelength of 535 nm. The ΔΨM was determined from the ratio of intensities at 600 nm and 535 nm.

RAW264.7 cells [3] = test: ATTO-465-MPE-298 internalization in RAW264.7 cells; type: cell-based, murine; settings: 30 min pretreatment with PP1 3 μg/mL, PP2 3 μg/mL or cytochalasin D 2 μg/mL, ATTO-465-MPE-298 500 nM 15 min, acid wash, n = 3 in triplicate
Protocol: RAW 264.7 cells (ATCC) were seeded at 125,000 cells per well in a 96-well plate and allowed to adhere overnight in Roswell Park Memorial Institute Medium (RPMI, Wisent Inc, Saint-Jean-Baptiste, QC, Canada) supplemented with 10% FBS and 1% penicillin/streptomycin at 37 °C in 5% CO2. The cells were weaned off FBS for 2 h in RPMI-25mM Hepes, supplemented with 1% penicillin/streptomycin and 0.2% BSA. The kinetics of ligand internalization (incubation at 37 °C) and plasma membrane bound (incubation at 4 °C) were initiated by adding ATTO-465-MPE-298 at different time points. After incubation, the cells were washed 3 times with cold PBS to determine the total fluorescence and the cell surface bounds or with sodium acetate pH 4 buffer at 4 °C to assess the internalized fraction, followed by lysis in 0.5N NaOH/0.05% sodium dodecyl sulfate (SDS). For the characterization of the endocytosis pathways elicited by MPE-298, cells were pretreated with specific inhibitors 30 min before adding the fluorescent peptide as the tracer. Briefly, after being weaned off FBS, the cells were preincubated at 37 °C in 5% CO2 with cytochalasin D (2 μg/mL), as an inhibitor of actin polymerization, and with PP1 (3 μg/mL) and PP2 (3 μg/mL), as inhibitors of Src kinases. After 30 min of incubation, ATTO-465-MPE-298 was added for an additional 15 min. The fluorescence was analyzed with excitation/emission wavelengths at 510/580 nm using a BioTek Synergy2 (Agilent, Santa Clara, CA, USA)microplate reader.

p66Shc (Ser36) = test: Western blot of p66Shc phosphorylation in RAW264.7 cells; type: cell-based, murine; settings: preincubation before oxLDL, BI-0115 5 μM, SSO 100 μM, Figures 7A, S5
Protocol: (§1) Murine RAW264.7 cells or M1 BMDMs were seeded in 6-well plates. The next day, cells were starved for 4 h and treated with MPE-298 (100 nM) or oxLDL (25 μg/mL) for the indicated times. Cells were washed with cold PBS, then lysed for 30 min in ice-cold radioimmunoprecipitation assay buffer (RIPA) (150 mM NaCl, 50 mM Tris-HCl, 1% Triton X-100, 0.2% SDS, 50 mM NaF, and 2 mM EDTA, pH 7.4) containing protease and phosphatase inhibitors (Pierce Biotechnology, Waltham, MA, USA). Cell lysates were centrifuged at 15,000× g for 20 min at 4 °C.
(§2) The protein concentration of supernatants was determined by a bicinchoninic acid (BCA) assay (Pierce Biotechnology, Waltham, MA, USA). Equal amounts of protein extracts were separated on 4–12% SDS–polyacrylamide gels and transferred to polyvinylidene difluoride (PVDF) membranes (Bio-Rad Laboratories, Hercules, CA, USA) for immunoblotting. Membranes were blotted with primary antibodies p47phox and Rac1/2/3 for phosphorylated Syk (Tyr348), as well as SRC family kinases (Tyr416), Lyn (Tyr397), JNK (Thr183/Tyr185), and p66Shc (Ser36). […] Immunoblotted bands were detected by enhanced chemiluminescence with West Femto chemiluminescent substrate (Thermo Scientific, Waltham, MA, USA) using a ChemiDoc MP Imaging System (Bio-Rad Laboratories, Hercules, CA, USA). […]

CCL2 = CCL2 secretion, ELISA; type: cell-based, mouse; settings: RAW264.7, SSO 100 μM, Figure 4G
Protocol: RAW264.7 cells were seeded at a density of 150,000/well in 48-well plates. The next day, the cells were weaned for 4 h in DMEM supplemented with 0.2% BSA, exposed to MPE-298 or oxLDL or the combination of MPE-298 and oxLDL, and incubated at 37 °C in 5% CO2 for 16 h. After the incubation period, media were collected and assessed for CCL2 chemokine using a mouse ELISA detection kit (Invitrogen-Life Technologies, Carlsbad, CA, USA) following the manufacturer’s instructions. For experiments using inhibitors, the cells were pre-exposed to SSO for 30 min prior to stimulation with MPE-298 or oxLDL.

JNK (Thr183/Tyr185) = test: Western blot of JNK phosphorylation in RAW264.7 cells; type: cell-based, murine; settings: preincubation before oxLDL, BI-0115 5 μM, SSO 100 μM, Figures 7A, S5
Protocol: as §1, §2

SMILES | effect of inhibitor pretreatment on MPE-298- and oxLDL-induced loss of BRET signal (CD36) | effect of inhibitor on MPE-298's inhibition of oxLDL-elicited mtROS production (RAW264.7 cells [1]) | effect of inhibitor on oxLDL-elicited mitochondrial membrane depolarization (RAW264.7 cells [2]) | decrease of uptake of fluorescently labeled MPE-298 (RAW264.7 cells [3]) [%] | effect on oxLDL-induced p66Shc phosphorylation (p66Shc (Ser36)) | effect of inhibitor on oxLDL-elicited mtROS production (RAW264.7 cells [1]) | effect of inhibitor on MPE-298's reversal of oxLDL-elicited mitochondrial membrane depolarization (RAW264.7 cells [2]) | effect of preincubation on oxLDL-induced CCL2 secretion (CCL2; 30 min preincubation) | effect of pre-exposure on MPE-298's effects on oxLDL-triggered CCL2 release (CCL2) | effect on oxLDL-induced JNK phosphorylation (JNK (Thr183/Tyr185))
C=C1[C@@H](C)[C@H]2[C@H](Cc3ccccc3)NC(=O)[C@]23[C@H](OC(C)=O)/C=C/[C@@](C)(O)C(=O)[C@@H](C)C/C=C/[C@H]3[C@@H]1O [cytochalasin D] | completely abolished | blocked the protective effect | prevented | 53 | – | – | – | – | – | –
CCCCCCCC/C=C\CCCCCCCC(=O)ON1C(=O)CC(S(=O)(=O)O)C1=O (centres unmarked) [SSO, sulfosuccinimidyl oleate] | completely abolished | blocked the protective effect | prevented | – | did not prevent | neither SSO nor PP1 and 2-BP altered | did not block | unaltered | completely abolished | did not prevent
Oc1cc(O)cc(/C=C/c2ccc(O)c(O)c2)c1 [piceatannol] | completely abolished | – | – | – | – | – | – | – | – | –
CCCCCCCCCCCCCCC(Br)C(=O)O (centres unmarked) [2-BP, 2-bromohexadecanoic acid] | abolish | blocked | prevented | – | – | neither SSO nor PP1 and 2-BP altered | did not block | – | – | –
Cc1ccc(-c2nn(C(C)(C)C)c3ncnc(N)c23)cc1 [PP1] | completely abolished | blocked the protective effect | prevented | 45 | – | neither SSO nor PP1 and 2-BP altered | did not block | – | – | –
CC(C)(C)n1nc(-c2ccc(Cl)cc2)c2c(N)ncnc21 [PP2] | – | – | – | 41 | – | – | – | – | – | –
